Like-named read-outs stand apart in the source and are kept apart here.

The target of this test is human Cat S (Homo sapiens (Human), UniProt P25774). The test is described as follows: Cathepsin enzyme inhibition assay (fluorogenic peptide substrate). Type of test: biochemical. The conditions noted are these: read-out: CatS IC50. On the procedure: Cathepsin Enzyme Inhibition Assay
Enzyme activity is measured by observing the increase in fluorescence intensity caused by cleavage of a peptide substrate containing a fluorophore whose emission is quenched in the intact peptide.
Assay buffer: 100 mM potassium phosphate pH 6.5, EDTA-Na 5 mM, Triton X-100 0.001%, DTT 5 mM.
Enzymes (all at 1 nM): human and mouse Cathepsin S, Cat K, Cat B, Cat L.
Substrate ([…], except for Cat K which uses Z-Leu-Arg-AMC (both from Bachem).
Excitation 360 nm, Emission 465 nm.
Enzyme is added to the substance dilutions in 96-well microtitre plates and the reaction is started with substrate. […] IC50 are calculated by standard methods.
Inhibition of human Cat S, mouse Cat S, human Cat K, mouse Cat K, human Cat B, mouse Cat B, human Cat L and mouse Cat L have been measured separately.

Setting [1] is: human Cat S, enzyme 1 nM, substrate Z-Val-Val-Arg-AMC, pH 6.5.

Sequence of human Cat S (P25774 115-331): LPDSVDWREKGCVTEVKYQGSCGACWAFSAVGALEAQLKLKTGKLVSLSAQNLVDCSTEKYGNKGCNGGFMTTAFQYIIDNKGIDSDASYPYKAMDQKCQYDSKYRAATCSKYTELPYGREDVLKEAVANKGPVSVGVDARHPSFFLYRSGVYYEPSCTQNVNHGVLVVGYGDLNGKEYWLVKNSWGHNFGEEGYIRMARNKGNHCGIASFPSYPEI

One may read the IC50 as the concentration that inhibits the measured activity by half. With `COCCc1[nH]c(-c2ccc(C(F)(F)F)cc2)nc1CN1CCC(c2c[nH]c3ccncc23)CC1` [Example 61, 3-{1-[5-(2-Methoxy-ethyl)-2-(4-trifluoromethyl-phenyl)-1H-imidazol-4-ylmethyl]-piperidin-4-yl}-1H-pyrrolo[3,2-c]pyridine], under setting [1], the IC50 was determined as 1940 nM. For the compound `Cc1[nH]c(-c2ccc(C(F)(F)F)cc2)nc1CN1CCC(c2c[nH]c3ccncc23)CC1` [Example 63, 3-{1-[5-Methyl-2-(4-trifluoromethyl-phenyl)-1H-imidazol-4-ylmethyl]-piperidin-4-yl}-1H-pyrrolo[3,2-c]pyridine], the IC50 under setting [1] amounted to 667 nM.

Turning to `Cc1[nH]c(-c2ccc(S(=O)(=O)CC(C)C)cc2)nc1CN1CCC(N2Cc3ccccc3NC2=O)CC1` [Example 78, 3-(1-{5-Methyl-2-[4-(2-methyl-propane-1-sulfonyl)-phenyl]-1H-imidazol-4-ylmethyl}-piperidin-4-yl)-3,4-dihydro-1H-quinazolin-2-one], the IC50 under setting [1] turned out to be 1070 nM. Same read-out and setting: under `Cc1[nH]c(-c2ccc(Cl)cc2Cl)nc1CN1CCC(N2Cc3ccccc3NC2=O)CC1` [Example 57, 3-{1-[2-(2,4-Dichloro-phenyl)-5-methyl-1H-imidazol-4-ylmethyl]-piperidin-4-yl}-3,4-dihydro-1H-quinazolin-2-one] stands 995 nM; under `O=C1Nc2ccccc2CN1C1CCN(Cc2nc(-c3ccc(C(F)(F)F)cc3)[nH]c2Cc2ccccc2)CC1` [Example 56, 3-{1-[5-Benzyl-2-(4-trifluoromethyl-phenyl)-1H-imidazol-4-ylmethyl]-piperidin-4-yl}-3,4-dihydro-1H-quinazolin-2-one], 225 nM; under `COCCc1[nH]c(-c2ccc(C(F)(F)F)cc2)nc1CN1CCC(N2Cc3ccccc3NC2=O)CC1` [Example 55, 3-{1-[5-(2-Methoxy-ethyl)-2-(4-trifluoromethyl-phenyl)-1H-imidazol-4-ylmethyl]-piperidin-4-yl}-3,4-dihydro-1H-quinazolin-2-one], 350 nM. On the same count and under the same terms, under `COCCn1c(=O)n(C2CCN(Cc3nc(-c4ccc(C(F)(F)F)cc4)[nH]c3C)CC2)c2ccc(Cl)cc21` [Example 27, 5-Chloro-3-(2-methoxy-ethyl)-1-{1-[5-methyl-2-(4-trifluoromethyl-phenyl)-1H-imidazol-4-ylmethyl]-piperidin-4-yl}-1,3-dihydro-benzoimidazol-2-one] stands 220 nM.

As for `Cc1[nH]c(-c2ccc(C(F)(F)F)cc2)nc1CN1CCC(N2C(=O)Cc3cc(Cl)ccc32)CC1` [Example 43, 5-Chloro-1-{1-[5-methyl-2-(4-trifluoromethyl-phenyl)-1H-imidazol-4-ylmethyl]-piperidin-4-yl}-1,3-dihydro-indol-2-one], the IC50 was 445 nM. As for `Cc1c(CN2CCC(N3Cc4ccccc4NC3=O)CC2)nc(-c2ccc(C(F)(F)F)cc2)n1C` [Example 71, 3-{1-[1,5-Dimethyl-2-(4-trifluoromethyl-phenyl)-1H-imidazol-4-ylmethyl]-piperidin-4-yl}-3,4-dihydro-1H-quinazolin-2-one], the IC50 under setting [1] was determined as 84 nM.

`Cn1nc(CN2CCC(N3Cc4ccccc4NC3=O)CC2)nc1-c1ccc(C(F)(F)F)cc1` [Example 66, 3-{1-[1-Methyl-5-(4-trifluoromethyl-phenyl)-1H-[1,2,4]triazol-3-ylmethyl]-piperidin-4-yl}-3,4-dihydro-1H-quinazolin-2-one]: the IC50 under setting [1] was found to be 450 nM. Turning to `Cc1[nH]c(-c2ccc(C(F)(F)F)cc2)nc1CN1CCC(N2Cc3ccccc3N(C)C2=O)CC1` [Example 53, 1-Methyl-3-{1-[5-methyl-2-(4-trifluoromethyl-phenyl)-1H-imidazol-4-ylmethyl]-piperidin-4-yl}-3,4-dihydro-1H-quinazolin-2-one], under setting [1], the IC50 is 145 nM. Still for that read-out and setting: under `O=c1[nH]c(-c2ccc(Br)cc2)nn1C1CCN(Cc2cnc(-c3ccc(C(F)(F)F)cc3)[nH]2)CC1` [Example 16, 5-(4-Bromophenyl)-2-[1-[[2-[4-(trifluoromethyl)phenyl]-1H-imidazol-5-yl]methyl]-4-piperidyl]-4H-1,2,4-triazol-3-one] stands 1500 nM; under `Cc1nc(-c2ccc(C(F)(F)F)cc2)[nH]c1CN1CCC(n2cc(-c3ccc(Br)cc3)[nH]c2=O)CC1` [Example 12, 5-(4-Bromophenyl)-3-[1-[[4-methyl-2-[4-(trifluoromethyl)phenyl]-1H-imidazol-5-yl]methyl]-4-piperidyl]-1H-imidazol-2-one], 590 nM.

Take `Cc1[nH]c(-c2ccc(C(F)(F)F)c(F)c2)nc1CN1CCC(n2c(=O)n(C)c3ccccc32)CC1` [Example 44, 1-{1-[2-(3-Fluoro-4-trifluoromethyl-phenyl)-5-methyl-1H-imidazol-4-ylmethyl]-piperidin-4-yl}-3-methyl-1,3-dihydro-benzoimidazol-2-one]: the IC50 under setting [1] turned out to be 385 nM. In the case of `Cc1[nH]c(-c2ccc(C(F)(F)F)cc2)nc1CN1CCC(n2c(=O)n(CC(N)=O)c3cc(Cl)ccc32)CC1` [Example 31, 2-(6-Chloro-3-{1-[5-methyl-2-(4-trifluoromethyl-phenyl)-1H-imidazol-4-ylmethyl]-piperidin-4-yl}-2-oxo-2,3-dihydro-benzoimidazol-1-yl)-acetamide], the IC50 under setting [1] amounted to 310 nM. Still for that read-out and setting: for `Cc1[nH]c(-c2ccc(Cl)c(Cl)c2)nc1CN1CCC(N2Cc3ccccc3NC2=O)CC1` [Example 42, 3-{1-[2-(3,4-Dichloro-phenyl)-5-methyl-1H-imidazol-4-ylmethyl]-piperidin-4-yl}-3,4-dihydro-1H-quinazolin-2-one] the value was 287 nM; for `O=c1[nH]ccc2c1ncn2C1CCN(Cc2cnc(-c3ccc(C(F)(F)F)cc3)[nH]2)CC1` [Example 14, 1-[1-[[2-[4-(Trifluoromethyl)phenyl]-1H-imidazol-5-yl]methyl]-4-piperidyl]-5H-imidazo[4,5-c]pyridin-4-one], 4320 nM; for `CCCc1[nH]c(-c2ccc(C(F)(F)F)cc2)nc1CN1CCC(N2Cc3ccccc3NC2=O)CC1` [Example 62, 3-{1-[5-Propyl-2-(4-trifluoromethyl-phenyl)-1H-imidazol-4-ylmethyl]-piperidin-4-yl}-3,4-dihydro-1H-quinazolin-2-one], 300 nM.

Regarding `Cc1nc(-c2ccc(C(F)(F)F)cc2)[nH]c1CN1CCC(n2cnc3c(=O)[nH]ccc32)CC1` [Example 13, 1-[1-[[4-Methyl-2-[4-(trifluoromethyl)phenyl]-1H-imidazol-5-yl]methyl]-4-piperidyl]-5H-imidazo[4,5-c]pyridin-4-one], under setting [1], the IC50 was found to be 2750 nM. Same read-out and setting: for `Cc1[nH]c(-c2ccc(C(F)(F)F)cc2)nc1CN1CCC(N2Cc3ccc(F)cc3NC2=O)CC1` [Example 25, 7-Fluoro-3-{1-[5-methyl-2-(4-trifluoromethyl-phenyl)-1H-imidazol-4-ylmethyl]-piperidin-4-yl}-3,4-dihydro-1H-quinazolin-2-one] the value was 180 nM. As to `Cc1[nH]c(-c2ccc(C(F)(F)F)cc2)nc1CN1CCC(N2C(=O)COc3ccccc32)CC1` [Example 19, 4-{1-[5-Methyl-2-(4-trifluoromethyl-phenyl)-1H-imidazol-4-ylmethyl]-piperidin-4-yl}-4H-benzo[1,4]oxazin-3-one], the IC50 was 470 nM.

In the case of `COCCN1C(=O)N(C2CCN(Cc3nc(-c4ccc(C(F)(F)F)cc4)[nH]c3C)CC2)Cc2ccccc21` [Example 54, 1-(2-Methoxy-ethyl)-3-{1-[5-methyl-2-(4-trifluoromethyl-phenyl)-1H-imidazol-4-ylmethyl]-piperidin-4-yl}-3,4-dihydro-1H-quinazolin-2-one], the IC50 under setting [1] came to 135 nM. Take `Cc1[nH]c(-c2ccc(C(F)(F)F)cc2)nc1CN1CCC(n2c(=O)n(C)c3cc(Cl)ccc32)CC1` [Example 18, 5-Chloro-3-methyl-1-{1-[5-methyl-2-(4-trifluoromethyl-phenyl)-1H-imidazol-4-ylmethyl]-piperidin-4-yl}-1,3-dihydro-benzoimidazol-2-one]: the IC50 under setting [1] stood at 195 nM. Same read-out and setting: for `CC(=O)OCCn1c(=O)n(C2CCN(Cc3nc(-c4ccc(C(F)(F)F)cc4)[nH]c3C)CC2)c2ccc(Cl)cc21` [Example 29, Acetic acid 2-(6-chloro-3-{1-[5-methyl-2-(4-trifluoromethyl-phenyl)-1H-imidazol-4-ylmethyl]-piperidin-4-yl}-2-oxo-2,3-dihydro-benzoimidazol-1-yl)-ethyl ester] the value was 280 nM.

In the case of `Cc1[nH]c(-c2ccc(S(=O)(=O)C(F)(F)F)cc2)nc1CN1CCC(c2c[nH]c3ccncc23)CC1` [Example 77, 3-{1-[5-Methyl-2-(4-trifluoromethanesulfonyl-phenyl)-1H-imidazol-4-ylmethyl]-piperidin-4-yl}-1H-pyrrolo[3,2-c]pyridine], under setting [1], the IC50 turned out to be 155 nM. The same measure, in the same setting: for `Cc1[nH]c(-c2ccc(Cl)c(F)c2)nc1CN1CCC(N2Cc3ccccc3NC2=O)CC1` [Example 50, 3-{1-[2-(4-Chloro-3-fluoro-phenyl)-5-methyl-1H-imidazol-4-ylmethyl]-piperidin-4-yl}-3,4-dihydro-1H-quinazolin-2-one] the value was 605 nM. `Cc1[nH]c(-c2ccc(C(F)(F)F)cc2)nc1CN1CCC(n2c(=O)n(CCO)c3cc(Cl)ccc32)CC1` [Example 30, 5-Chloro-3-(2-hydroxy-ethyl)-1-{1-[5-methyl-2-(4-trifluoromethyl-phenyl)-1H-imidazol-4-ylmethyl]-piperidin-4-yl}-1,3-dihydro-benzoimidazol-2-one]: under setting [1], the IC50 is 230 nM.

Source of the values: patent publication US10172843B2, “Piperidine derivatives” (Hoffmann-La Roche Inc., priority 2014, dated 2019).
